Measured values reported in US12552753B2, “Methods and compositions for targeting Tregs using CCR8 inhibitors” (Nanjing Immunophage Biomedical Co., Ltd., priority 2020, dated 2026).
pIC50: −log10 of the molar value. Where a name gives a salt, the structure may show the parent alone.

Target: CCR8 (Homo sapiens, UniProt P51685)
Test: Tango assay (Tango-CCR8-Gal4-CHO-K1 cells, CCL1-stimulated, ONE-Glo luminescence)
Details: Tango Assay IC50, Inhibition of CCR8 Tango cell in vitro

CCR8, sequence (P51685 whole entry, the tested form may be a part): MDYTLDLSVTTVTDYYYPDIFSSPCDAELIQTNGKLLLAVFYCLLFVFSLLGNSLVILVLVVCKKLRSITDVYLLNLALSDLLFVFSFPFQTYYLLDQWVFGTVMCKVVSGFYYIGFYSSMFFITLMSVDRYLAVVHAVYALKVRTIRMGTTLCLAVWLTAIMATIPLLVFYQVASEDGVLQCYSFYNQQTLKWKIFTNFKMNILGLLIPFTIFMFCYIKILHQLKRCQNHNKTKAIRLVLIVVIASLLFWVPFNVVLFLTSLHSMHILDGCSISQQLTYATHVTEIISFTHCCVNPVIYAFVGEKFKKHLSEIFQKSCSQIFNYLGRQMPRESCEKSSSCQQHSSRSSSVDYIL

Row | Structure (SMILES) | pIC50
1 | Cc1cc(S(=O)(=O)N[C@H](C)C2CCNCC2)ccc1NC(=O)c1nccs1 [Compound 253A, (R)-N-(2-methyl-4-(N-(1-(piperidin-4-yl)ethyl)sulfamoyl)phenyl)thiazole-2-carboxamide hydrochloride] | 6.07
2 | Cc1cc(S(=O)(=O)N[C@H](C)C2CCNCC2)ccc1NC(=O)C1CCC1 [Compound 254, (R)-N-(2-methyl-4-(N-(1-(piperidin-4-yl)ethyl)sulfamoyl)phenyl) cyclobutanecarboxamide] | < 4.00
3 | Cc1cc(S(=O)(=O)NC(C)C2CCNCC2)ccc1NC(=O)c1ccccc1Cl (centres unmarked) [Compound 255, 2-chloro-N-(2-methyl-4-(N-(1-(piperidin-4-yl)ethyl)sulfamoyl)phenyl)benzamide] | 7.52
4 | Cc1ccccc1C(=O)Nc1cc(C)c(S(=O)(=O)N[C@H](C)C2CCNCC2)cc1F [Compound 257, (R)-N-(2-fluoro-5-methyl-4-(N-(1-(piperidin-4-yl)ethyl)sulfamoyl)phenyl)-2-methylbenzamide hydrochloride] | 7.82
5 | Cc1cc(S(=O)(=O)N[C@H](C)C2CCNCC2)ccc1NC(=O)c1ccc(F)cc1C [Compound 258A, (R)-4-fluoro-2-methyl-N-(2-methyl-4-(N-(1-(piperidin-4-yl)ethyl)sulfamoyl)phenyl)benzamide hydrochloride] | < 4.00
6 | Cc1cc(S(=O)(=O)N[C@@H](C)C2CCN(C)CC2)c(F)cc1NC(=O)c1ccccc1C [Compound 262A, (S)-N-(5-fluoro-2-methyl-4-(N-(1-(1-methylpiperidin-4-yl)ethyl)sulfamoyl)phenyl)-2-methylbenzamide] | < 4.00
7 | Cc1ccccc1C(=O)Nc1cc(F)c(S(=O)(=O)N[C@@H](C)C2CCN(C)CC2)cc1Cl [Compound 263A, (S)-N-(2-chloro-5-fluoro-4-(N-(1-(1-methylpiperidin-4-yl)ethyl)sulfamoyl)phenyl)-2-methylbenzamide hydrochloride] | 6.55
8 | Cc1ccccc1C(=O)Nc1cc(F)c(S(=O)(=O)NC(C)C2CCN(C)CC2)cc1Cl (centres unmarked) [Compound 263C, N-(2-chloro-5-fluoro-4-(N-(1-(1-methylpiperidin-4-yl)ethyl)sulfamoyl)phenyl)-2-methylbenzamide] | 7.82
9 | Cc1ccccc1C(=O)Nc1ccc(S(=O)(=O)N[C@H](C)C2CCN(C)CC2)c(F)c1Cl [Compound 264, (R)-N-(2-chloro-3-fluoro-4-(N-(1-(1-methylpiperidin-4-yl)ethyl)sulfamoyl)phenyl)-2-methylbenzamide] | 7.96
10 | Cc1cc(S(=O)(=O)N[C@H](C)C2CCN(C)CC2)ccc1NC(=O)c1c(C)cccc1F [Compound 270, (R)-2-fluoro-6-methyl-N-(2-methyl-4-(N-(1-(1-methylpiperidin-4-yl)ethyl)sulfamoyl)phenyl) benzamide] | 7.30
11 | Cc1cc(S(=O)(=O)N[C@H](C)C2CCN(C)CC2)ccc1NC(=O)C1CCCCCC1 [Compound 274, (R)-N-(2-methyl-4-(N-(1-(1-methylpiperidin-4-yl)ethyl)sulfamoyl)phenyl) cycloheptane-carboxamide] | 7.89
12 | Cc1ccccc1C(=O)Nc1ccc(S(=O)(=O)N[C@H](C)C2CCN(C)CC2)c(Cl)c1Cl [Compound 275, (R)-N-(2,3-dichloro-4-(N-(1-(1-methylpiperidin-4-yl)ethyl)sulfamoyl)phenyl)-2-methylbenzamide] | 7.34
13 | Cc1cc(S(=O)(=O)N[C@H](C)C2CCN(C)CC2)ccc1NC(=O)c1ccc(F)cc1C [Compound 276, (R)-4-fluoro-2-methyl-N-(2-methyl-4-(N-(1-(1-methylpiperidin-4-yl)ethyl)sulfamoyl)phenyl) benzamide hydrochloride] | 8.00
14 | Cc1ccc(C(=O)Nc2ccc(S(=O)(=O)N[C@H](C)C3CCN(C)CC3)cc2C)c(C)c1 [Compound 277, (R)-2,4-dimethyl-N-(2-methyl-4-(N-(1-(1-methylpiperidin-4-yl)ethyl)sulfamoyl)phenyl) benzamide] | 8.70
15 | CCN1CCCN(C(c2cccc(NS(=O)(=O)c3ccc4ccccc4c3)c2)C(F)(F)F)CC1 (centres unmarked) [Compound 279, N-(3-(1-(4-ethyl-1,4-diazepan-1-yl)-2,2,2-trifluoroethyl)phenyl)naphthalene-2-sulfonamide] | < 4.00
16 | CN(C)CCN1CCOc2cc(NS(=O)(=O)c3ccc4ccccc4c3)ccc2C1=O [Compound 280, N-(4-(2-(dimethylamino)ethyl)-5-oxo-2,3,4,5-tetrahydrobenzo[f][1,4]oxazepin-8-yl)naphthalene-2-sulfonamide] | < 4.00
17 | Cc1ccccc1C(=O)Nc1ccc(S(=O)(=O)NCc2ccccc2)c2ccccc12 [Compound 281, N-(4-(N-benzylsulfamoyl)naphthalen-1-yl)-2-methylbenzamide] | < 4.00
18 | Cc1ccccc1C(=O)Nc1ccc(S(=O)(=O)NC(C)(C)c2ccccc2)c2ccccc12 [Compound 283, 2-methyl-N-(4-(N-(2-phenylpropan-2-yl)sulfamoyl)naphthalen-1-yl)benzamide] | < 4.00
19 | CC(NS(=O)(=O)c1ccc2[nH]c(=O)ccc2c1)C1CC2CCC1CC2 (centres unmarked) [Compound 284, N-(1-(bicyclo[2.2.2]octan-2-yl)ethyl)-2-oxo-1,2-dihydroquinoline-6-sulfonamide] | < 4.00
20 | Cc1cc(S(=O)(=O)N[C@H](C)C2CCN(C(=O)OC(C)(C)C)CC2)c(C)cc1NC(=O)c1ccccc1C [Compound 285, tert-butyl (R)-4-(1-((2,5-dimethyl-4-(2-methylbenzamido)phenyl)sulfonamido)ethyl)piperidine-1-carboxylate] | < 4.00
21 | Cc1cc(S(=O)(=O)NC(C)(C)C2CCN(C)CC2)ccc1NC(=O)c1ccccc1C [Compound 291, 2-methyl-N-(2-methyl-4-(N-(2-(1-methylpiperidin-4-yl)propan-2-yl)sulfamoyl)phenyl) benzamide] | 6.61
22 | Cc1cc(S(=O)(=O)NC(C)C(C)(C)CN(C)C)ccc1NC(=O)c1ccccc1C (centres unmarked) [Compound 294, N-(4-(N-(4-(dimethylamino)-3,3-dimethylbutan-2-yl)sulfamoyl)-2-methylphenyl)-2-methylbenzamide hydrochlroide, hydrochloride] | < 4.00
23 | COc1cc(NC(=O)c2ccccc2C)c(C)cc1S(=O)(=O)N[C@H](C)C1CCN(C)CC1 [Compound 298, (R)-N-(5-methoxy-2-methyl-4-(N-(1-(1-methylpiperidin-4-yl)ethyl)sulfamoyl)phenyl)-2-methylbenzamide] | 7.77
24 | Cc1cc(S(=O)(=O)N[C@H](C)C2CCN(C)CC2)ccc1NC1(c2ccccc2)COC1 [Compound 299, (R)-3-methyl-N-(1-(1-methylpiperidin-4-yl)ethyl)-4-((3-phenyloxetan-3-yl)amino) benzene-sulfonamide] | < 4.00

The next lines start with the values.

Row | pIC50 | Structure (SMILES)
25 | 8.70 | Cc1cc(S(=O)(=O)N[C@H](C)C2CCNCC2)ccc1NC(=O)c1ccc(Cl)cc1C [Compound 256A, (R)-4-chloro-2-methyl-N-(2-methyl-4-(N-(1-(piperidin-4-yl)ethyl)sulfamoyl)phenyl)benzamide hydrochloride]
26 | 8.52 | Cc1ccc(C(=O)Nc2ccc(S(=O)(=O)N[C@H](C)C3CCNCC3)cc2C)c(C)c1 [Compound 259A, (R)-2,4-dimethyl-N-(2-methyl-4-(N-(1-(piperidin-4-yl)ethyl)sulfamoyl)phenyl)benzamide hydrochloride]
27 | 8.30 | Cc1cc(S(=O)(=O)N[C@H](C)C2CCN(C)CC2)c(F)cc1NC(=O)c1ccccc1C [Compound 262, (R)-N-(5-fluoro-2-methyl-4-(N-(1-(1-methylpiperidin-4-yl)ethyl)sulfamoyl)phenyl)-2-methylbenzamide]
28 | 8.70 | Cc1ccccc1C(=O)Nc1cc(F)c(S(=O)(=O)N[C@H](C)C2CCN(C)CC2)cc1Cl [Compound 263, (R)-N-(2-chloro-5-fluoro-4-(N-(1-(1-methylpiperidin-4-yl)ethyl)sulfamoyl)phenyl)-2-methylbenzamide]
29 | 8.52 | COc1ccc(C(=O)Nc2ccc(S(=O)(=O)N[C@H](C)C3CCN(C)CC3)cc2C)c(C)c1 [Compound 266, (R)-4-methoxy-2-methyl-N-(2-methyl-4-(N-(1-(1-methylpiperidin-4-yl)ethyl)sulfamoyl)phenyl) benzamide]
30 | 8.70 | Cc1ccccc1C(=O)Nc1cc(C)c(S(=O)(=O)N[C@H](C)C2CCN(C)CC2)cc1Cl [Compound 267A, (R)-N-(2-chloro-5-methyl-4-(N-(1-(1-methylpiperidin-4-yl)ethyl)sulfamoyl)phenyl)-2-methylbenzamide hydrochloride]
31 | 9.00 | Cc1cc(S(=O)(=O)N[C@H](C)C2CCN(C)CC2)ccc1NC(=O)c1cc(Cl)ccc1C [Compound 272, (R)-5-chloro-2-methyl-N-(2-methyl-4-(N-(1-(1-methylpiperidin-4-yl)ethyl)sulfamoyl)phenyl) benzamide]
32 | 9.00 | Cc1cc(S(=O)(=O)N[C@H](C)C2CCN(C)CC2)ccc1NC(=O)c1ccc(Cl)cc1C [Compound 273A, (R)-4-chloro-2-methyl-N-(2-methyl-4-(N-(1-(1-methylpiperidin-4-yl)ethyl)sulfamoyl)phenyl) benzamide hydrochloride]
33 | 8.22 | Cc1ccccc1C(=O)Nc1ccc(S(=O)(=O)N[C@H](C)C2CCN(C)CC2)c(F)c1C [Compound 278, (R)-N-(3-fluoro-2-methyl-4-(N-(1-(1-methylpiperidin-4-yl)ethyl)sulfamoyl)phenyl)-2-methylbenzamide hydrochloride]
34 | 8.34 | Cc1cc(S(=O)(=O)N[C@H](C)C2CCN(C)CC2)ccc1NC(=O)C12CCC(CC1)CC2 [Compound 295, (R)-N-(2-methyl-4-(N-(1-(1-methylpiperidin-4-yl)ethyl)sulfamoyl)phenyl)bicyclo [2.2.2]oct-ane-1-carboxamide]
35 | 8.70 | Cc1cc(S(=O)(=O)N[C@H](C)C2CCN(C)CC2)ccc1NC(=O)c1cccc2c1CCC2 [Compound 296, (R)-N-(2-methyl-4-(N-(1-(1-methylpiperidin-4-yl)ethyl)sulfamoyl)phenyl)-2,3-dihydro-1H-indene-4-carboxamide]
